# Reference: US12649744B2, “N-(pyridin-2-yl)-6,7,8,9-tetrahydro-5h-5,8-epiminocyclohepta[c]pyridine-10-carboxamide derivatives and similar compounds as GPR65 modulators for the treatment of cancer” (PATHIOS THERAPEUTICS LIMITED, priority 2020, dated 2026)
# pIC50: −log10 of the molar value.
# Biological target: human recombinant GPR65 (Homo sapiens, UniProt Q8IYL9)
# Test: Human GPR65 cAMP HTRF antagonist assay
# Format: cell-based
# Conditions: 1321N1-hrGPR65 cells, assay pH of 7.2, cAMP HTRF; read-out: hGPR65 IC50
# Source text: The “Human GPR65 cyclic adenosine monophosphate (cAMP) Homogeneous Time Resolved Fluorescence (HTRF) antagonist assay”, or simply “cAMP assay”, as described below, can be used to measure the potency of GPR65 modulators, which is expressed as the concentration of compound required to reduce the increase in cAMP concentration upon GPR65 activation by 50% (i.e. an IC50).
# Human GPR65 Cyclic Adenosine Monophosphate (cAMP) Homogeneous Time Resolved Fluorescence (HTRF) Antagonist Assay Procedure
# IC50 data was obtained by the following procedure:
# 1321N1 human astrocytoma cells stably expressing human recombinant GPR65 (1321N1-hrGPR65 cells, EuroscreenFast) were cultured according to the vendor's instructions.
# Compounds were tested for their ability to antagonise GPR65, through measuring the concentration of cytoplasmic cAMP following treatment of the cells at a pH of 7.2 to activate GPR65 signalling and addition of the compound to be tested. The extent to which the expected rise in cAMP concentration upon GPR65 activation was suppressed by the added compound is indicative of its potency. The assay was carried out according to EuroscreenFast assay methodology as follows.
# On the day of the assay, test compounds were added to 384-well, low volume, white microtiter plates by acoustic dispensing. KRH buffer (5 mM KCl, 1.25 mM MgSO4, 124 mM NaCl, 25 mM HEPES, 13.3 mM Glucose, 1.25 mM KH2PO4 and 1.45 mM CaCl2) was adjusted to pH 6.5, pH 7.6 and pH 8.4 by adding NaOH. 1321N1-hGPR65 cells were rapidly thawed and diluted in KRH, pH 7.6 prior to centrifugation at 300×g for 5 min and resuspension in assay buffer (KRH, pH 7.6, supplemented with 1 mM 3-isobutyl-1-methylxanthine (IBMX) and 200 μM ethylenediaminetetraacetic acid (EDTA)). Cells were added to assay plates at a density of 2,000 cells per well in a volume of 5 μl. Assay plates were briefly centrifuged at 100×g and then incubated at room temperature for 30 min. Cells were stimulated by the addition of 5 μL KRH, pH 6.5, to achieve an assay pH of 7.2, while control wells received 5 μl KRH, pH 8.4 to achieve an assay pH of 7.9. Assay plates were briefly centrifuged at 100×g and then incubated at room temperature for 30 min.
# Accumulation of cAMP was detected by cAMP HTRF kit (Cisbio). d2-labeled cAMP and cryptate-labeled anti-cAMP antibody in Lysis and Detection Buffer (Cisbio) were added to assay plates, and the plates were incubated at room temperature for 1 h. HTRF measurements were performed using a Pherastar FSX instrument. Acceptor and donor emission signals were measured at 665 nm and 620 nm, respectively, and HTRF ratios were calculated as signal665 nm/signal620nm×10^4. Data were normalised to high and low control values and fitted with 4-parameter logistic regression to determine hGPR65 IC50 values for the test compounds, which are shown in Table 1.
# human recombinant GPR65, sequence (Q8IYL9 whole entry): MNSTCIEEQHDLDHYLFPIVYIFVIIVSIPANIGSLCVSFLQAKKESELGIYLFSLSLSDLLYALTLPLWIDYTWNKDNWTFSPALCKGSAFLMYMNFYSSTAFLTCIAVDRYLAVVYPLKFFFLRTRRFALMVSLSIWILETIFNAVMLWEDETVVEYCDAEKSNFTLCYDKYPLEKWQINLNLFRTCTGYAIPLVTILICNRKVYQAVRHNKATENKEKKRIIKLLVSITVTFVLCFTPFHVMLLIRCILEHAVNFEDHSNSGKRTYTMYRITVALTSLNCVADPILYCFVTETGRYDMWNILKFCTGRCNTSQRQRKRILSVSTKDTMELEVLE
row,Structure (SMILES),pIC50
1,"O=C(Nc1cnc(-c2ccccc2)s1)N1[C@H]2CC[C@@H]1c1ccnc(F)c1C2 [Compound 29, (5R,8S)-1-Fluoro-N-(2-phenylthiazol-5-yl)-6,7,8,9-tetrahydro-5H-5,8-epiminocyclohepta[c]pyridine-10-carboxamide]",> 6.30
2,"O=C(Nc1nc(Cl)c(Cl)s1)N1[C@H]2CC[C@@H]1c1ccnc(F)c1C2 [Compound 30, (5R,8S)-N-(4,5-Dichlorothiazol-2-yl)-1-fluoro-6,7,8,9-tetrahydro-5H-5,8-epiminocyclohepta[c]pyridine-10-carboxamide]",> 6.30
3,"O=C(Nc1nnc(C2CC2)s1)N1[C@H]2CC[C@@H]1c1ccnc(F)c1C2 [Compound 31, (5R,8S)-N-(5-Cyclopropyl-1,3,4-thiadiazol-2-yl)-1-fluoro-6,7,8,9-tetrahydro-5H-5,8-epiminocyclohepta[c]pyridine-10-carboxamide]",5.30 to 6.30
4,"O=C(Nc1nnc(C2CCOCC2)s1)N1[C@H]2CC[C@@H]1c1ccnc(F)c1C2 [Compound 32, (5R,8S)-1-Fluoro-N-(5-(tetrahydro-2H-pyran-4-yl)-1,3,4-thiadiazol-2-yl)-6,7,8,9-tetrahydro-5H-5,8-epiminocyclohepta[c]pyridine-10-carboxamide]",< 5.30
5,"O=C(Nc1nnc(-c2ccccc2)s1)N1[C@H]2CC[C@@H]1c1ccnc(F)c1C2 [Compound 33, (5R,8S)-1-Fluoro-N-(5-phenyl-1,3,4-thiadiazol-2-yl)-6,7,8,9-tetrahydro-5H-5,8-epiminocyclohepta[c]pyridine-10-carboxamide]",> 6.30
6,"Cn1nc(NC(=O)N2[C@H]3CC[C@@H]2c2ccnc(F)c2C3)c2ccccc21 [Compound 34, (5R,8S)-1-Fluoro-N-(1-methyl-1H-indazol-3-yl)-6,7,8,9-tetrahydro-5H-5,8-epiminocyclohepta[c]pyridine-10-carboxamide]",< 5.30
7,"O=C(Nc1ccc2nonc2c1)N1[C@H]2CC[C@@H]1c1ccnc(F)c1C2 [Compound 35, (5R,8S)-N-(Benzo[c][1,2,5]oxadiazol-5-yl)-1-fluoro-6,7,8,9-tetrahydro-5H-5,8-epiminocyclohepta[c]pyridine-10-carboxamide]",5.30 to 6.30
8,"O=C(Nc1cc(C(F)(F)F)on1)N1[C@H]2CC[C@@H]1c1ccnc(F)c1C2 [Compound 36, (5R,8S)-1-Fluoro-N-(5-(trifluoromethyl)isoxazol-3-yl)-6,7,8,9-tetrahydro-5H-5,8-epiminocyclohepta[c]pyridine-10-carboxamide]",> 6.30
9,"N#Cc1ccc(NC(=O)N2[C@H]3CC[C@@H]2c2ccnc(F)c2C3)nc1C(F)(F)F [Compound 37, (5R,8S)-N-(5-Cyano-6-(trifluoromethyl)pyridin-2-yl)-1-fluoro-6,7,8,9-tetrahydro-5H-5,8-epiminocyclohepta[c]pyridine-10-carboxamide]",5.30 to 6.30
10,"N#Cc1cnc(NC(=O)N2[C@H]3CC[C@@H]2c2ccnc(F)c2C3)c(C(F)(F)F)c1 [Compound 38, (5R,8S)-N-(5-Cyano-3-(trifluoromethyl)pyridin-2-yl)-1-fluoro-6,7,8,9-tetrahydro-5H-5,8-epiminocyclohepta[c]pyridine-10-carboxamide]",> 6.30
11,"O=C(Nc1ccc(OC(F)F)cn1)N1[C@H]2CC[C@@H]1c1ccnc(F)c1C2 [Compound 39, (5R,8S)-N-(5-(Difluoromethoxy)pyridin-2-yl)-1-fluoro-6,7,8,9-tetrahydro-5H-5,8-epiminocyclohepta[c]pyridine-10-carboxamide]",5.30 to 6.30
12,"O=C(Nc1ccc(OC(F)(F)F)cn1)N1[C@H]2CC[C@@H]1c1ccnc(F)c1C2 [Compound 40, (5R,8S)-1-Fluoro-N-(5-(trifluoromethoxy)pyridin-2-yl)-6,7,8,9-tetrahydro-5H-5,8-epiminocyclohepta[c]pyridine-10-carboxamide]",> 6.30
13,"N#Cc1ccc(NC(=O)N2[C@H]3CC[C@@H]2c2ccnc(F)c2C3)nc1 [Compound 41, (5R,8S)-N-(5-Cyanopyridin-2-yl)-1-fluoro-6,7,8,9-tetrahydro-5H-5,8-epiminocyclohepta[c]pyridine-10-carboxamide]",5.30 to 6.30
14,"O=C(Nc1nc(-c2ccccc2)no1)N1[C@H]2CC[C@@H]1c1ccnc(F)c1C2 [Compound 42, (5R,8S)-1-Fluoro-N-(3-phenyl-1,2,4-oxadiazol-5-yl)-6,7,8,9-tetrahydro-5H-5,8-epiminocyclohepta[c]pyridine-10-carboxamide]",5.30 to 6.30
15,"Cc1nnc(NC(=O)N2[C@H]3CC[C@@H]2c2ccnc(F)c2C3)s1 [Compound 43, (5R,8S)-1-Fluoro-N-(5-methyl-1,3,4-thiadiazol-2-yl)-6,7,8,9-tetrahydro-5H-5,8-epiminocyclohepta[c]pyridine-10-carboxamide]",< 5.30
16,"O=C(Nc1ccc2nc(C(F)(F)F)ccc2c1)N1[C@H]2CC[C@@H]1c1ccnc(F)c1C2 [Compound 44, (5R,8S)-1-Fluoro-N-(2-(trifluoromethyl)quinolin-6-yl)-6,7,8,9-tetrahydro-5H-5,8-epiminocyclohepta[c]pyridine-10-carboxamide]",> 6.30
17,"O=C(Nc1nnc(-c2ccccc2)o1)N1[C@H]2CC[C@@H]1c1ccnc(F)c1C2 [Compound 45, (5R,8S)-1-Fluoro-N-(5-phenyl-1,3,4-oxadiazol-2-yl)-6,7,8,9-tetrahydro-5H-5,8-epiminocyclohepta[c]pyridine-10-carboxamide]",5.30 to 6.30
18,"N#Cc1cnc(NC(=O)N2[C@H]3CC[C@@H]2c2ccnc(F)c2C3)cc1Cl [Compound 46, (5R,8S)-N-(4-Chloro-5-cyanopyridin-2-yl)-1-fluoro-6,7,8,9-tetrahydro-5H-5,8-epiminocyclohepta[c]pyridine-10-carboxamide]",> 6.30
19,"N#Cc1ccc(NC(=O)N2[C@H]3CC[C@@H]2c2ccnc(F)c2C3)nc1Cl [Compound 47, (5R,8S)-N-(6-Chloro-5-cyanopyridin-2-yl)-1-fluoro-6,7,8,9-tetrahydro-5H-5,8-epiminocyclohepta[c]pyridine-10-carboxamide]",5.30 to 6.30
20,"Cn1nc(NC(=O)N2[C@H]3CC[C@@H]2c2ccnc(F)c2C3)cc1C(F)(F)F [Compound 48, (5R,8S)-1-fluoro-N-(1-methyl-5-(trifluoromethyl)-1H-pyrazol-3-yl)-6,7,8,9-tetrahydro-5H-5,8-epiminocyclohepta[c]pyridine-10-carboxamide]",< 5.30
21,"O=C(Nc1cc(C(F)(F)F)on1)N1[C@H]2CC[C@@H]1c1c[nH]c(=O)cc1C2 [Compound 49, (6S,9R)-3-oxo-N-(5-(trifluoromethyl)isoxazol-3-yl)-3,5,6,7,8,9-hexahydro-2H-6,9-epiminocyclohepta[c]pyridine-10-carboxamide]",> 6.30
22,"O=C(Nc1cc(C(F)(F)F)no1)N1[C@H]2CC[C@@H]1c1ccnc(F)c1C2 [Compound 50, (5R,8S)-1-fluoro-N-(3-(trifluoromethyl)isoxazol-5-yl)-6,7,8,9-tetrahydro-5H-5,8-epiminocyclohepta[c]pyridine-10-carboxamide]",> 6.30
23,"COC(=O)c1cc(NC(=O)N2[C@H]3CC[C@@H]2c2ccnc(F)c2C3)no1 [Compound 51, methyl-3-((5R,8S)-1-fluoro-6,7,8,9-tetrahydro-5H-5,8-epiminocyclohepta[c]pyridine-10-carboxamido)isoxazole-5-carboxylate]",5.30 to 6.30
24,"N#Cc1cc(NC(=O)N2[C@H]3CC[C@@H]2c2ccnc(F)c2C3)no1 [Compound 52, (5R,8S)-N-(5-cyanoisoxazol-3-yl)-1-fluoro-6,7,8,9-tetrahydro-5H-5,8-epiminocyclohepta[c]pyridine-10-carboxamide]",> 6.30
